Experimental data taken from US7741327B2 (Hoffmann-La Roche Inc., priority 2008, dated 2010).

Key:
C57B6 mice = experiment: Glucokinase activator in vivo screen: blood glucose lowering in mice after oral dosing; settings: Mus musculus, vs control, read-out: % gluc lowering @ 4 H; for change in vivo at 25 mg/kg: 4 h post 25 mg/kg oral dose
Method: Glucokinase Activator in vivo Screen Protocol in Lean and Diet Induced Obese Mice: Lean or Diet-Induced Obese (DIO) C57BL/6J mice were orally dosed via gavage with Glucokinase (GK) activator following a two hour fasting period. Blood glucose determinations were made at various (e.g. 0, 1, 2, 4 and 8 h post-oral gavage) times during the study.
C57Bl/6J mice were obtained from Jackson Laboratory (Bar Harbor, Me.) and were maintained in a light-dark cycle with lights on from 0600-1800 hr. For studies in lean mice, the mice were received at age ten weeks and given ad libitum access to control diet (LabDiet 5001 chow, PMI Nutrition, Brentwood, Mo.), and were at least age 11 weeks at the time of study. For studies in the DIO model, the mice were received at age five weeks and given ad libitum access to Bio-Serv F3282 High Fat Diet (Frenchtown, N.J.), and were at least age 16 weeks at the time of study. The experiments were conducted during the light phase of the light-dark cycle. Mice (n=6) are weighed and fasted for a two hour period prior to oral treatment. GK activators are formulated in Gelucire vehicle (Ethanol:Gelucire44/14:PEG400q.s. 4:66:30 v/w/v. For studies in lean mice, the mice were dosed orally with 5.0 μL per gram of body weight (i.e. 5 ml/kg×10.0 mg/ml formulation to equal a 50 mg/kg dose). For studies in DIO mice, the mice were dosed orally with 5.0 μL per gram of body weight (i.e. 5.0 ml/kg×5 mg/ml formulation to equal a 25 mg/kg dose). Immediately prior to dosing, a pre-dose (time zero) blood glucose reading was acquired by snipping off a small portion of the animal's tail and collecting 15 μL blood into a heparinized capillary tube for analysis. Following GK activator administration, additional blood glucose readings were taken at various time points post dose from the same tail wound. Results were interpreted by comparing the mean blood glucose values of vehicle treated mice with GK activator treated mice over the study period.
The Table below provides data for % glucose lowering of a representative number of compounds of the present invention vs control at 4 h post 25 or 30 mg/kg dose in C57B6 mice: […]

[1] = molecular target: T1, Recombinant human liver GK1 (GST-GK) (Homo sapiens, UniProt P35557); experiment: In vitro glucokinase activity (G6PDH-coupled NADH assay); format: biochemical; settings: 30° C., 5 mM D-glucose, 10% DMSO
T1 construct: made in house; host or cells: E. coli
T1 sequence (P35557 1-466 isoform P35557-2): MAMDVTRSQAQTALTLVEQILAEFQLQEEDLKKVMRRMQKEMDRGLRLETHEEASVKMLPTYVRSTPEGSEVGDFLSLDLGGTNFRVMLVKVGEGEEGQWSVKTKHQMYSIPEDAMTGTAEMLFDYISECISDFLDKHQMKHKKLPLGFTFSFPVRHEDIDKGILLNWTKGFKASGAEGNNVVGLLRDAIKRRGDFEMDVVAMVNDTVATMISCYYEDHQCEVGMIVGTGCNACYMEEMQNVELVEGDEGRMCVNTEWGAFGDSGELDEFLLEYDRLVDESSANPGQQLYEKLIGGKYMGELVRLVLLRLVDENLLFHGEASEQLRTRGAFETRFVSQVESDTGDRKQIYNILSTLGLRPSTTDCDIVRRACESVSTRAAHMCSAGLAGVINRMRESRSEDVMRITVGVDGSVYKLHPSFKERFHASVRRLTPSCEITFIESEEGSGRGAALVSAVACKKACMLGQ
How it was run: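 Activation measured as the rate of OD340 rise from G6PDH-coupled NADH production, relative to 10% DMSO control, reported as SC1.5 (concentration for 50% activity increase). Conditions: 30° C, pH 7.1 Hepes, 5 mM glucose, 1 mM ATP, purified recombinant GST-human GK1, compound preincubated 10 min before enzyme addition.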

SMILES | change in vivo at 25 mg/kg (C57B6 mice) [%] | SC1.5 (concentration of activator that produced a 50% increase in the activity of GK) [1] [µM] | change in vivo at 30 mg/kg (C57B6 mice; 4 h post 30 mg/kg oral dose) [%]
COc1ccccc1OC1=CC(=O)N([C@@H](CC2CCCO2)C(=O)Nc2ccn(CC(C)(C)O)n2)C1 (stereo partly drawn) [Example 31, (S)-N-[1-(2-hydroxy-2-methyl-propyl)-1H-pyrazol-3-yl]-2-[4-(2-methoxy-phenoxy)-2-oxo-2,5-dihydro-pyrrol-1-yl]-3-(tetrahydro-furan-2-yl)-propionamide] | -31.6 | 0.348 | –
CC(C)(O)Cn1ccc(NC(=O)[C@H](CC2CCCCC2)N2CC(Oc3ccccc3C(F)(F)F)=CC2=O)n1 [Example 32, (S)-3-Cyclohexyl-N-[1-(2-hydroxy-2-methyl-propyl)-1H-pyrazol-3-yl]-2-[2-oxo-4-(2-trifluoromethyl-phenoxy)-2,5-dihydro-pyrrol-1-yl]-propionamide] | -37.5 | 0.025 | –
CC(C)(O)Cn1ccc(NC(=O)[C@H](CC2CCCC2)N2CC(OC3CCC3)=CC2=O)n1 [Example 19, (S)-3-Cyclopentyl-N-[1-(2-hydroxy-2-methyl-propyl)-1H-pyrazol-3-yl]-2-(4-cyclobutoxy-2-oxo-2,5-dihydro-pyrrol-1-yl)-propionamide] | -29.5 | 1.991 | –
CC(C)C[C@@H](C(=O)Nc1ccn(CC(C)(C)O)n1)N1CC(Oc2ccccc2Cl)=CC1=O [Example 64, (S)-2-[4-(2-Chloro-phenoxy)-2-oxo-2,5-dihydro-pyrrol-1-yl]-4-methyl-pentanoic acid [1-(2-hydroxy-2-methyl-propyl)-1H-pyrazol-3-yl]-amide] | – | 0.125 | -58
